In the supplement of paper PMC10307832:

How the values were obtained:
Assay in all cases: relative viability (nuclei count vs DMSO), 5 days (fraction); higher = more cells survive
[1] = compound: O=C(O)c1ccc2c(c1)nc(Nc1cccc(Cl)c1)c1ccncc12 [Silmitasertib] + COc1cc2c(Oc3ccc(NC(=O)C4(C(=O)Nc5ccc(F)cc5)CC4)cc3F)ccnc2cc1OCCCN1CCOCC1 [Foretinib] (partner 0.25 µM)
Outline: (§1)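 For relative viability, nuclei counts in treated wells were divided by those in vehicle wells. Lung cancer cell lines had been pin-tool dosed in 1536-well plates the day after seeding and cultured for 5 days, then fixed and stained in one step (final 0.05% Triton X-100, 1% formaldehyde, 1 ug/ml Hoechst) and imaged at 4×. Doses were one drug alone or a fixed anchor-drug dose plus five library-drug doses (not always all listed) in √10 steps, and values are duplicate-plate medians.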

Silmitasertib + OSI-027 = compound: O=C(O)c1ccc2c(c1)nc(Nc1cccc(Cl)c1)c1ccncc12 [Silmitasertib] + COc1cccc2cc(-c3nc([C@H]4CC[C@H](C(=O)O)CC4)n4ncnc(N)c34)[nH]c12 [OSI-027] (partner 0.5 µM)
Outline: as §1

[2] = compound: O=C(O)c1ccc2c(c1)nc(Nc1cccc(Cl)c1)c1ccncc12 [Silmitasertib] + C[C@@H](Oc1cc(-c2cnn(C3CCNCC3)c2)cnc1N)c1c(Cl)ccc(F)c1Cl [Crizotinib] (partner 1 µM)
Outline: as §1

[3] = compound: O=C(O)c1ccc2c(c1)nc(Nc1cccc(Cl)c1)c1ccncc12 [Silmitasertib] + Cc1nc(NC(=O)N2CCC[C@H]2C(N)=O)sc1-c1ccnc(C(C)(C)C(F)(F)F)c1 [Alpelisib] (partner 2 µM)
Outline: as §1

[4] = compound: O=C(O)c1ccc2c(c1)nc(Nc1cccc(Cl)c1)c1ccncc12 [Silmitasertib] + N=C(N)NC(=N)NCCc1ccccc1 [Phenformin] (partner 250 µM)
Outline: as §1

Cell Line | relative viability ([1]; first compound 0.04 µM) | relative viability ([1]; first compound 1.265 µM) | relative viability ([1]; first compound 4 µM) | relative viability (Silmitasertib + OSI-027; first compound 0.04 µM) | relative viability (Silmitasertib + OSI-027; first compound 1.265 µM) | relative viability (Silmitasertib + OSI-027; first compound 4 µM) | relative viability ([2]; first compound 0.04 µM) | relative viability ([2]; first compound 0.4 µM) | relative viability ([2]; first compound 1.265 µM) | relative viability ([2]; first compound 4 µM) | relative viability ([3]; first compound 0.04 µM) | relative viability ([3]; first compound 0.4 µM) | relative viability ([3]; first compound 1.265 µM) | relative viability ([3]; first compound 4 µM) | relative viability ([4]; first compound 0.04 µM) | relative viability ([4]; first compound 1.265 µM) | relative viability ([4]; first compound 4 µM) | relative viability ([1]; first compound 0.4 µM) | relative viability (Silmitasertib + OSI-027; first compound 0.4 µM) | relative viability ([4]; first compound 0.4 µM)
NCI-H1975 | 0.883 | 0.802 | 0.83 | 0.67 | 0.645 | 0.66 | 0.954 | 0.795 | 0.929 | 0.816 | 0.683 | 0.532 | 0.589 | 0.468 | 0.443 | 0.382 | 0.394 |  |  | 
NCI-H1993 | 0.817 | 0.651 | 0.65 | 0.544 | 0.614 | 0.658 | 0.956 | 0.899 | 0.803 | 0.644 | 0.662 | 0.602 | 0.617 | 0.688 | 0.547 | 0.543 | 0.566 | 0.652 | 0.56 | 0.447
NCI-H2009 | 1.34 | 1.13 | 0.897 | 0.784 | 0.424 | 0.262 | 1.09 | 1.04 | 1.1 | 0.97 | 1.17 | 1.03 | 1.03 | 0.707 | 0.542 | 0.374 | 0.312 | 1.16 | 0.506 | 0.487
NCI-H2023 | 0.886 | 0.551 | 0.707 | 0.503 | 0.343 | 0.251 | 0.663 | 0.585 | 0.513 | 0.542 | 0.684 | 0.522 | 0.599 | 0.399 | 0.455 | 0.374 | 0.34 | 0.75 | 0.345 | 0.38
NCI-H2085 | 0.918 | 0.952 | 0.861 | 0.914 | 0.704 | 0.466 | 0.871 | 0.777 | 0.806 | 0.77 | 1.02 | 0.806 | 0.81 | 0.878 | 0.761 | 0.675 | 0.597 |  |  | 
NCI-H2087 | 1.22 | 0.741 | 0.806 | 0.507 | 0.513 | 0.18 | 0.88 | 0.793 | 0.853 | 0.428 | 1.08 | 0.811 | 0.76 | 0.386 | 0.515 | 0.431 | 0.223 |  |  | 
NCI-H2126 | 1.21 | 1.03 | 1.07 | 0.725 | 0.596 | 0.602 | 1.02 | 0.996 | 0.99 | 1.12 | 0.72 | 0.667 | 0.727 | 0.704 | 0.494 | 0.494 | 0.462 |  |  | 0.515
NCI-H2170 | 1.01 | 0.916 | 1.01 | 0.798 | 0.619 | 0.54 | 1.22 | 0.958 | 0.863 | 1.15 | 0.805 | 0.648 | 0.697 | 0.771 | 0.408 | 0.406 | 0.421 | 0.881 | 0.535 | 0.34
NCI-H2228 | 1 | 0.926 | 1.1 | 0.541 | 0.583 | 0.494 | 0.497 | 0.495 | 0.449 | 0.374 | 0.785 | 0.821 | 0.821 | 0.808 | 0.409 | 0.258 | 0.371 |  |  | 
NCI-H2347 | 0.612 | 0.885 | 0.561 | 0.414 | 0.398 | 0.336 | 0.792 | 0.683 | 0.725 | 0.567 | 1.07 | 0.854 | 0.93 | 0.904 | 1.22 | 0.452 | 0.301 | 0.762 |  | 
NCI-H2405 | 1.02 | 0.967 | 0.964 | 0.646 | 0.498 | 0.567 | 0.822 | 0.692 | 0.745 | 0.803 | 0.935 | 0.688 | 0.639 | 0.775 | 0.435 | 0.34 | 0.301 | 0.887 | 0.518 | 0.34
NCI-H3122 | 0.821 | 0.982 | 0.947 | 0.993 | 0.972 | 0.826 | 0.305 | 0.262 | 0.256 | 0.262 | 0.784 | 0.726 | 0.902 | 0.969 | 0.416 | 0.433 | 0.47 | 0.86 | 0.888 | 0.365
PC-3 [JPC-3] | 1.12 | 1.14 | 0.998 | 0.841 | 0.777 | 0.573 | 0.968 | 0.868 | 1.03 | 0.999 | 1.02 | 0.79 | 1.01 | 1 | 0.475 | 0.468 | 0.424 | 0.852 | 0.573 | 0.398
PC-14 | 1.05 | 0.965 | 0.461 | 1.03 | 0.706 | 0.46 | 0.932 | 0.897 | 0.888 | 0.847 | 0.968 | 0.942 | 0.924 | 0.939 | 0.641 | 0.547 | 0.125 | 1.02 | 0.537 | 
RERF-LC-KJ | 0.887 | 0.765 | 0.628 | 0.627 | 0.41 | 0.373 | 0.77 | 0.817 | 0.736 | 0.711 | 0.929 | 0.797 | 0.66 | 0.51 | 0.407 | 0.31 | 0.268 | 0.753 | 0.484 | 0.378
SK-LU-1 | 0.954 | 0.621 | 0.417 | 0.432 | 0.223 | 0.197 | 1.2 | 0.714 | 0.502 | 0.315 | 1.09 | 0.836 | 0.413 | 0.27 | 0.527 | 0.426 | 0.262 | 0.693 | 0.248 | 0.451
SK-MES-1 | 1.12 | 0.946 | 0.535 | 0.675 | 0.435 | 0.236 | 1.1 | 1.05 | 1.06 | 0.656 | 0.87 | 0.896 | 0.788 | 0.446 | 0.752 | 0.434 | 0.27 | 0.885 | 0.558 | 0.582
